One experiment addresses T1, FLT3 kinase (Homo sapiens, UniProt P36888).
T1 sequence (P36888 564-993): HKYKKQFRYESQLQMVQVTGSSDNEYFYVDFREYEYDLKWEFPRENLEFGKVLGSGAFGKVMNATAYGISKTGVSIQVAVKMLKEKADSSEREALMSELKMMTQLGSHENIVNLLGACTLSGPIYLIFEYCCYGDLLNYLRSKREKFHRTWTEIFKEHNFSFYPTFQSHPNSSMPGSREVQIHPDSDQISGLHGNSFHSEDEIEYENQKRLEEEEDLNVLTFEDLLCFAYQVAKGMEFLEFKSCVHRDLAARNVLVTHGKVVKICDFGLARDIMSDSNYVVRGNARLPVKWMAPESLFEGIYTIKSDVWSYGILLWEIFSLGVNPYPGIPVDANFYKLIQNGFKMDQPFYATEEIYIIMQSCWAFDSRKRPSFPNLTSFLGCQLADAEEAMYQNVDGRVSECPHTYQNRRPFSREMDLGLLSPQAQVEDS
As to the kind of experiment: Kinase inhibition, fluorescence microfluidic mobility shift assay (FLT3). It is filed as biochemical. The settings on record: substrate peptide FAM-P2 3 μM, ATP 97 μM; one hour at 28° C.; assayed in duplicate.

The next experiment concerns the target T2, IRAK4 kinase (Homo sapiens, UniProt Q9NWZ3).
T2 sequence (Q9NWZ3 1-460): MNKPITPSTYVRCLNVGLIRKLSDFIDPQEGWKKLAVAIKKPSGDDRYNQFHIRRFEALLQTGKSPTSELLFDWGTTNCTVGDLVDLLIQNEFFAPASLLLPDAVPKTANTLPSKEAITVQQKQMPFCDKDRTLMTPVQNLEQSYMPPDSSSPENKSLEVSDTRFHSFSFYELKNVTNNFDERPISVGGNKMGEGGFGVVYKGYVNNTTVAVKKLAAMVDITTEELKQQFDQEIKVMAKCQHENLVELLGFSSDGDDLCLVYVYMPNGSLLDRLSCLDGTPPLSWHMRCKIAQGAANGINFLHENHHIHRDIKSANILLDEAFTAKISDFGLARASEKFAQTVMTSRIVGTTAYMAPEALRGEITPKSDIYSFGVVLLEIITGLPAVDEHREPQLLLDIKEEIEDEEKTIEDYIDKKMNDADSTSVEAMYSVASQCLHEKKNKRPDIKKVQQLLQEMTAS
In words: Kinase inhibition, fluorescence microfluidic mobility shift assay (IRAK4). The class given is biochemical. The conditions noted are these: substrate peptide FAM-P8 3 μM, ATP 10 μM; one hour at 28° C.; assayed in duplicate.

In a further experiment the test system is MV4-11 cells. As to the kind of experiment: Cytotoxicity against MV4-11 cells (CellTiter-Glo). The class given is cell-based. The settings on record: Homo sapiens, incubated for 72 hours, CellTiter-Glo chemiluminescence. As for the experimental part:
Determination of the IC50 Value of the Compound's Cytotoxicity Against MV4-11 Cells
MV-4-11 cells were cultured with IMDM complete medium (IMDM+10% fetal bovine serum+1% Penicillin-Streptomycin, a mixture of penicillin-streptomycin). • 2. MV-4-11 cells in good condition were collected and washed twice with DPBS ([…] phosphate buffered saline solution). • 3. MV-4-11 cells were resuspended with IMDM complete medium, the cell density was adjusted to 1.11×10^6 cells/mL, and the MV-4-11 cells were added to 96-well plates at 90 μL per well. • 4. A compound solution with 10-fold concentration was prepared with IMDM complete medium, 10 μL of the compound solution with 10-fold concentration was added to the cells in the 96-well plate, mixed well, and then the 96-well plate was placed in a 5% CO2 incubator at 37° C. and incubated for 72 hours. • 5. After the incubation, the 96-well plate was taken out and equilibrated for 30 minutes at room temperature. Then 100 μL of CellTiter Glo reagent was added to each well and mixed on a horizontal shaker for 2 minutes. • 6. The 96-well plate was removed, equilibrated at room temperature for 10 minutes, and the chemiluminescence value was detected on a microplate reader.

The values below come from US12195479B2, “Five- and six-membered compound, and preparation method therefor and pharmaceutical composition and use thereof” (HANGZHOU POLYMED BIOPHARMACEUTICALS, INC., priority 2021, dated 2025).

Description for FLT3 kinase: Based on the experimental method of fluorescence microfluidic mobility shift assay, the IC50 value of the compound for competitive binding of ATP to kinases IRAK4 and FLT3 was determined. The initial detection concentration of the compound was 10 μM, which was diluted to 0.38 nM with a 4-fold gradient and assayed in duplicate. In this case, commercially available staurosporine was the standard control for the assay.
Information on reagents and consumables is as follows: • IRAK4 kinase (Carna, Cat. No. 09-145, Lot. No. 14CBS-0020 H) • FLT3 kinase (Carna, Cat. No. 08-154, Lot. No. 07CBS-2350) • Substrate peptide FAM-P2 (GL Biochem, Cat. No. 112394, Lot. No. P131014-XP112394) • Substrate peptide FAM-P8 (GL Biochem, Cat. No. 112396, Lot. No. P170731-SY112396) • ATP (adenosine triphosphate, Sigma, Cat. No. A7699-1G, CAS No. 987-65-5) • DMSO (dimethyl sulfoxide, Sigma, Cat. No. D2650) • EDTA (ethylenediaminetetraacetic acid, Sigma, Cat. No. E5134, CAS No. 60-00-4) • Staurosporine (Selleckchem, Cat. No. 51421) • HEPES (4-(2-Hydroxyethyl)-1-piperazineethanesulfonic acid, Gibco, Cat. No. 15630-080) • Brij-35 solution (Polyoxyethylene lauryl ether, Sigma, Cat. No. B41840-100 mL) • DTT (dithiothreitol, Sigma, Cat. No. D0632-20G) • 0.2% Coating Reagent #3 (0.2% coating reagent, Perkin Elmer, Cat. No. 760050) • 96-well plate (Corning, Cat. No. 3365) • 384-well plate (Corning, Cat. No. 3573) Experimental operation method: • 1) FLT3 and IRAK4 kinases were dissolved in the kinase buffer (50 mM HEPES pH 7.5, 10 mM MgCl2, 2 mM DTT, and 0.01% Brij-35) at final concentrations of 0.9 nM, 30 nM, and 6 nM, respectively. • 2) The substrate peptide FAM-P2 and the substrate peptide FAM-P8, together with ATP, were dissolved in the above kinase buffer, respectively, where the final concentrations of the substrate peptide FAM-P2 and ATP for the determination of FLT3 were 3 μM and 97 μM, respectively; and the final concentrations of the substrate peptide FAM-P8 and ATP for the determination of IRAK4 were 3 μM and 10 μM, respectively. • 3) Compound dilution: The compound was first diluted to 50 μM, and then diluted downward with DMSO in a 4-fold gradient. In this case, the solution without compound and kinase served as the blank control, corresponding to the “minimum value” shown below; the solution without compound but containing kinase, adenosine triphosphate, DMSO, and the buffer served as the positive control, corresponding to the “maximum value” shown below. • 4) Kinase reaction and termination: 10 μL of the kinase buffer was added to a 384-well plate containing 5 μL of the compound to be tested, and the mixture was incubated for 10 minutes at room temperature; another 10 μL, of buffer containing the substrate peptide and adenosine triphosphate was added to the 384-well plate, and after incubation for one hour at 28° C., 25 μL, of termination solution (100 mM HEPES pH 7.5, 50 mM EDTA, 0.2% Coating Reagent #3, and 0.015% Brij-35) was added to each well for reaction termination. • 5) Data reading: CaliperEZ Reader II instrument was used to read the conversion rate data. Setting conditions: downstream voltage as −500 V, upstream voltage as −2250 V, base pressure as −0.5 PSI, and screening pressure as −1.2 PSI. • 6) Data calculation: the conversion rate data was copied from CaliperEZ Reader II, and the conversion rate was converted into inhibition rate data.

Turning to `Cc1cc(-c2nc(C(=O)Nc3cc4cn(C5CCC6(CNC6)C5)nc4cc3C(C)(C)O)co2)ccn1` (stereo not drawn) [II-99], the IC50 at FLT3 kinase stood at 0.26 nM; on IRAK4 kinase, 5.5 nM; in the experiment on MV4-11 cells, 10.9 nM.
Regarding `Cc1cc(-c2nc(C(=O)Nc3cc4cn(C5CC6CCC(C5)N6)nc4cc3C(C)(C)O)co2)ccn1` (stereo not drawn) [II-100], the IC50 at FLT3 kinase was determined as 0.62 nM; on IRAK4 kinase it was 22 nM; in the experiment with MV4-11 cells, 9 nM.
Taken in the same sequence, the figures for `Cc1cc(-c2nc(C(=O)Nc3cc4cn(C5CC6CCC(C5)N6C)nc4cc3C(C)(C)O)co2)ccn1` (stereo not drawn) [II-101] were 0.48 nM, 22 nM and 7 nM.
In the case of `Cc1cc(-c2nc(C(=O)Nc3cc4cn(CCC(C)(C)O)nc4cc3N3CCC(O)C3)co2)ccn1` (stereo not drawn) [II-102], the IC50 came out at 0.85 nM on FLT3 kinase, 21 nM on IRAK4 kinase and 8 nM with MV4-11 cells.
`Cc1cc(-c2nc(C(=O)Nc3cc4cn(C5CCOC(C)(C)C5)nc4cc3C(C)(C)O)co2)ccn1` (stereo not drawn) [II-103]: the IC50 amounted to 0.35 nM at FLT3 kinase, 3.2 nM on IRAK4 kinase and 3 nM in the experiment on MV4-11 cells.
As for `CC(C)c1cc(-c2nc(C(=O)Nc3cc4cn(CCC(C)(C)O)nc4cc3C(C)(C)O)co2)ccn1` [II-104], the values for the IC50 at FLT3 kinase, on IRAK4 kinase and in the experiment with MV4-11 cells were 2.31 nM, 5.3 nM and 21 nM, respectively.
Consider `Cc1cc(-c2nc(C(=O)Nc3cc4cn(C5CCN(C6COC6)CC5)nc4cc3C(C)(C)O)co2)ccn1` [II-106], for which the 50% inhibitory concentration (IC50) is 0.41 nM on FLT3 kinase, 3.3 nM at IRAK4 kinase and 8 nM with MV4-11 cells.
Turning to `Cc1cc(-c2nc(C(=O)Nc3cc4cn(CC5(F)CNC5)nc4cc3C(C)(C)O)co2)ccn1` [II-108], the results for the IC50 at FLT3 kinase, at IRAK4 kinase and in the experiment with MV4-11 cells were 0.29 nM, 11.7 nM and 22 nM, respectively.
For `[2H]C([2H])([2H])C(O)(c1cc2nn(CCC(C)(C)O)cc2cc1NC(=O)c1coc(-c2ccnc(C(F)(F)F)c2)n1)C([2H])([2H])[2H]` [II-109], in that order: 4.2 nM, 6.48 nM and 15.2 nM.
For the compound `Cc1cc(-c2nc(C(=O)Nc3cc4cn(CCC(C)(C)O)nc4cc3C(C)(O)C(F)(F)F)co2)ccn1` (stereo not drawn) [II-111], the figures for the half-maximal inhibitory concentration (IC50) on FLT3 kinase, on IRAK4 kinase and in the experiment with MV4-11 cells were 0.42 nM, 4.94 nM and 0.8 nM, respectively.
Turning to `CC(C)(O)c1cc2nn([C@H]3CC[C@@H](O)CC3)cc2cc1NC(=O)c1coc(-c2ccnc(C(F)(F)F)c2)n1` [II-112], the half-inhibitory concentration (IC50) at FLT3 kinase was 2.8 nM; on IRAK4 kinase, 6.96 nM; with MV4-11 cells it was 11.9 nM.
In the case of `CC(C)N1CCC(n2cc3cc(NC(=O)c4coc(-c5ccnc(C(F)(F)F)c5)n4)c(C(C)(C)O)cc3n2)CC1` [II-113F], the values for the IC50 at FLT3 kinase, on IRAK4 kinase and with MV4-11 cells were 0.38 nM, 4.6 nM and 6 nM, respectively.
For `Cc1cc(-c2nc(C(=O)Nc3cc4cn(C5CC6CCC(C5)O6)nc4cc3C(C)(C)O)co2)ccn1` (stereo not drawn) [II-114], in that order: 0.26 nM, 5.9 nM and 1.3 nM.
On to `Cc1cc(-c2nc(C(=O)Nc3cc4cn(CC5(F)COC5)nc4cc3C(C)(C)O)co2)ccn1` [II-115], for which the concentration for half-maximal inhibition (IC50) at FLT3 kinase worked out at 0.25 nM; on IRAK4 kinase, 11 nM; in the experiment with MV4-11 cells, 2.5 nM.
Taken in the same sequence, the figures for `[2H]C([2H])([2H])C(O)(CCn1cc2cc(NC(=O)c3coc(-c4ccnc(C(F)(F)F)c4)n3)c(C(C)(C)O)cc2n1)C([2H])([2H])[2H]` [II-117] were 4 nM, 5.54 nM and 23.2 nM.
For `CC(C)(O)c1cc2nn(C3CC4CCC(C3)N4)cc2cc1NC(=O)c1coc(-c2ccnc(C(F)(F)F)c2)n1` (stereo not drawn) [II-118], the half-maximal inhibitory concentration (IC50) stood at 0.44 nM on FLT3 kinase, 12.2 nM at IRAK4 kinase and 6.2 nM in the experiment with MV4-11 cells.
`CC(C)(O)c1cc2nn(C3CCOCC3)cc2cc1NC(=O)c1coc(-c2ccnc(C(F)(F)F)c2)n1` [II-121]: the IC50 at FLT3 kinase was determined as 3.5 nM; on IRAK4 kinase, 9.1 nM; in the experiment with MV4-11 cells, 33 nM.
For the compound `Cc1cc(-c2nc(C(=O)Nc3cc4oc(N5CCOCC5)nc4nc3C(C)(C)O)co2)ccn1` [II-122], the IC50 was 6.23 nM on FLT3 kinase, 14.1 nM on IRAK4 kinase and 33 nM with MV4-11 cells.
For `Cc1cc(-c2nc(C(=O)Nc3cc4sc(N5CCOCC5)nc4nc3C(C)(C)O)co2)ccn1` [II-124], the 50% inhibitory concentration (IC50) came to 0.31 nM at FLT3 kinase, 4.8 nM on IRAK4 kinase and 5 nM in the experiment with MV4-11 cells.
For the compound `Cc1cc(-c2nc(C(=O)Nc3cc4oc(N5CCC(F)(F)CC5)nc4nc3N3CCC(O)C3)co2)ccn1` (stereo not drawn) [II-129], the concentration for half-maximal inhibition (IC50) at FLT3 kinase stood at 11 nM; at IRAK4 kinase, 57 nM; with MV4-11 cells, 49.6 nM.
With `Cc1cc(-c2nc(C(=O)Nc3cc4oc(N5CCOCC5)nc4cc3N3CCC(O)C3)co2)ccn1` (stereo not drawn) [II-132], the 50% inhibitory concentration (IC50) on FLT3 kinase came out at 0.35 nM; on IRAK4 kinase, 7.18 nM; in the experiment with MV4-11 cells, 1.2 nM.
For `Cc1cc(-c2nc(C(=O)Nc3cc4sc(N5CCOCC5)nc4cc3N3CCC(O)C3)co2)ccn1` (stereo not drawn) [II-133], in that order: 0.26 nM, 4.84 nM and 0.2 nM.
